Consider 24 compounds from patent publication US20260297080A1, “BICYCLIC COMPOUNDS AS CDK INHIBITORS” (BeOne Medicines I GmbH, priority 2022, published 2026).

One assay addresses CDK1/Cyclin B1 (Homo sapiens, UniProt P06493). Kind of assay: CDK1/Cyclin B1 Biochemical Assay (TR-FRET), 0.015 mM ATP. The conditions noted are these: 0.15 μM Rb (Ser780)-biotin substrate, pH7.0, 60 min preincubation, 120 min reaction, room temperature. In a few lines: (§1)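 IC50 was from a four-parameter logistic fit of the 665/620 nm TR-FRET ratio (Eu anti-pRb Ser780 mAb, streptavidin-XL665). Compound (0-10 μM) was preincubated 60 min with enzyme, then reacted 120 min at room temperature with 0.15 μM biotinylated Rb (Ser780) peptide. ATP was 0.015 mM for CDK1/Cyclin B1 and 0.060 mM for CDK2/Cyclin E1; buffer was HEPES pH7.0.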
In general terms: Time-resolved FRET reads energy transfer from a long-lived donor to a nearby acceptor.

The target of a further assay is CDK2/Cyclin E1 (Homo sapiens, UniProt P24941). Kind of assay: CDK2/Cyclin E1 Biochemical Assay (TR-FRET), 0.060 mM ATP. The conditions noted are these: 0.15 μM Rb (Ser780)-biotin substrate, pH7.0, 60 min preincubation, 120 min reaction, room temperature. In a few lines:
as §1

CDK1/Cyclin B1, sequence (P06493 whole entry): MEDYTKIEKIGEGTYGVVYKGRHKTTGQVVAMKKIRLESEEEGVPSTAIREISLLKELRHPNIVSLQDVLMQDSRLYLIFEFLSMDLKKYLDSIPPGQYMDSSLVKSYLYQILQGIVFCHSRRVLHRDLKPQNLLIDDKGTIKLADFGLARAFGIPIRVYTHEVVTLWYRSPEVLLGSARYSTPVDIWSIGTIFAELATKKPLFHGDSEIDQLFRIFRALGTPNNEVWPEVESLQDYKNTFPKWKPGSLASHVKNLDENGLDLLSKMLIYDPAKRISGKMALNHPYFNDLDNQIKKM
CDK1/Cyclin B1, sequence (P14635 whole entry partner): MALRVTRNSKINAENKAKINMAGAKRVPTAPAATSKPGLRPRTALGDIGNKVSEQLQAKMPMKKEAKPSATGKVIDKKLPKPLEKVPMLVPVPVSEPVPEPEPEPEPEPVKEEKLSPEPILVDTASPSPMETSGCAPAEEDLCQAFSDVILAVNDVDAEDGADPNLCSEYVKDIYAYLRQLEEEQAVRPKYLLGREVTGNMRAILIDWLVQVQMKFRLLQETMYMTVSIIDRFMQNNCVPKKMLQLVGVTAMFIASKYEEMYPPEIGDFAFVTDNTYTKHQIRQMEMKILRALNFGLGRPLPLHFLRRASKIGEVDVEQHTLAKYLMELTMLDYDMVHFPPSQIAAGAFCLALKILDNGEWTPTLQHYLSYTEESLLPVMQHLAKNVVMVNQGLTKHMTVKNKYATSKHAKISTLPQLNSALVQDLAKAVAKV

As a reminder, the IC50 is the midpoint of a concentration-inhibition curve. A lower IC50 goes with higher potency. As for `CC1NS(=O)(=O)c2ccc(Nc3cc([C@@H]4CC[C@H](OC(=O)NC5(C)CC5)C4)[nH]n3)cc21` (single isomer, unassigned) [Example 322c, cis-3-(3-((3-methyl-1,1-dioxido-2,3-dihydrobenzo[d]isothiazol-5-yl)amino)-1H-pyrazol-5-yl)cyclopentyl(1-methylcyclopropyl)carbamate], the IC50 at CDK1/Cyclin B1 worked out at 0.029 µM; at CDK2/Cyclin E1, 0.0013 µM.
With `CC1NS(=O)(=O)c2ccc(Nc3cc([C@@H]4CC[C@H](OC(=O)NC5(C)CC5)C4)[nH]n3)cc21` (single isomer, unassigned) [Example 322d, cis-3-(3-((3-methyl-1,1-dioxido-2,3-dihydrobenzo[d]isothiazol-5-yl)amino)-1H-pyrazol-5-yl)cyclopentyl(1-methylcyclopropyl)carbamate], the figures for the IC50 against CDK1/Cyclin B1 and on CDK2/Cyclin E1 were 0.0056 µM and 0.0007 µM, respectively.
The matching figures for `CC[C@H](C)NC(=O)O[C@H]1CC[C@@H](c2cc(Nc3ccc4c(c3)CS(=O)(=O)N4)n[nH]2)C1` (single isomer, unassigned) [Example 323a]: 0.03 µM and 0.0067 µM.
The matching figures for `CC[C@H](C)NC(=O)O[C@H]1CC[C@@H](c2cc(Nc3ccc4c(c3)CS(=O)(=O)N4)n[nH]2)C1` (single isomer, unassigned) [Example 323b]: 0.017 µM and 0.0062 µM.
In the case of `CN1c2ccc(Nc3cc([C@@H]4CC[C@H](OC(=O)NC(C)(C)CO)C4)[nH]n3)cc2CS1(=O)=O` (single isomer, unassigned) [Example 325a, cis-3-(3-((1-methyl-2,2-dioxido-1,3-dihydrobenzo[c]isothiazol-5-yl)amino)-1H-pyrazol-5-yl)cyclopentyl(1-hydroxy-2-methylpropan-2-yl)carbamate], the IC50 at CDK1/Cyclin B1 was found to be 0.023 µM; against CDK2/Cyclin E1, 0.0016 µM.
For `CN1c2ccc(Nc3cc([C@@H]4CC[C@H](OC(=O)NC(C)(C)CO)C4)[nH]n3)cc2CS1(=O)=O` (single isomer, unassigned) [Example 325b, cis-3-(3-((1-methyl-2,2-dioxido-1,3-dihydrobenzo[c]isothiazol-5-yl)amino)-1H-pyrazol-5-yl)cyclopentyl(1-hydroxy-2-methylpropan-2-yl)carbamate], the IC50 on CDK1/Cyclin B1 stood at 0.071 µM; on CDK2/Cyclin E1, 0.0023 µM.
With `CN1c2ccc(Nc3cc([C@@H]4CC[C@H](OC(=O)NC(C)(C)CO)C4)[nH]n3)c(F)c2CS1(=O)=O` (single isomer, unassigned) [Example 327a, cis-3-(3-((4-fluoro-1-methyl-2,2-dioxido-1,3-dihydrobenzo[c]isothiazol-5-yl)amino)-1H-pyrazol-5-yl)cyclopentyl(1-hydroxy-2-methylpropan-2-yl)carbamate], the IC50 against CDK1/Cyclin B1 was found to be 0.143 µM; against CDK2/Cyclin E1 it was 0.0015 µM.
Turning to `CN1c2ccc(Nc3cc([C@@H]4CC[C@H](OC(=O)NC(C)(C)CO)C4)[nH]n3)c(F)c2CS1(=O)=O` (single isomer, unassigned) [Example 327b, cis-3-(3-((4-fluoro-1-methyl-2,2-dioxido-1,3-dihydrobenzo[c]isothiazol-5-yl)amino)-1H-pyrazol-5-yl)cyclopentyl(1-hydroxy-2-methylpropan-2-yl)carbamate], the IC50 at CDK1/Cyclin B1 amounted to 0.056 µM; at CDK2/Cyclin E1, 0.0017 µM.
Consider `C[C@@H](CO)NC(=O)O[C@H]1CC[C@@H](c2cc(Nc3ccc4c(c3F)CNS4(=O)=O)n[nH]2)C1` (single isomer, unassigned) [Example 328a], for which the IC50 against CDK1/Cyclin B1 was 0.315 µM; against CDK2/Cyclin E1, 0.01 µM.
With `C[C@@H](CO)NC(=O)O[C@H]1CC[C@@H](c2cc(Nc3ccc4c(c3F)CNS4(=O)=O)n[nH]2)C1` (single isomer, unassigned) [Example 328b], the IC50 is 1.97 µM against CDK1/Cyclin B1 and 0.031 µM on CDK2/Cyclin E1.
Take `CN1c2ccc(Nc3cc([C@@H]4CC[C@H](OC(=O)NC5(C)COC5)C4)[nH]n3)c(F)c2CS1(=O)=O` (single isomer, unassigned) [Example 332a, cis-3-(3-((4-fluoro-1-methyl-2,2-dioxido-1,3-dihydrobenzo[c]isothiazol-5-yl)amino)-1H-pyrazol-5-yl)cyclopentyl(3-methyloxetan-3-yl)carbamate]: the IC50 on CDK1/Cyclin B1 came out at 0.367 µM; at CDK2/Cyclin E1 it was 0.0019 µM.
On the same counts, the results for `CN1c2ccc(Nc3cc([C@@H]4CC[C@H](OC(=O)NC5(C)COC5)C4)[nH]n3)c(F)c2CS1(=O)=O` (single isomer, unassigned) [Example 332b, cis-3-(3-((4-fluoro-1-methyl-2,2-dioxido-1,3-dihydrobenzo[c]isothiazol-5-yl)amino)-1H-pyrazol-5-yl)cyclopentyl(3-methyloxetan-3-yl)carbamate] are 0.16 µM and 0.0035 µM.
Take `CN1c2ccc(Nc3cc([C@@H]4CC[C@H](OC(=O)NC5(C)CCOC5)C4)[nH]n3)c(F)c2CS1(=O)=O` (single isomer, unassigned) [Example 349a, cis-3-(3-((4-fluoro-1-methyl-2,2-dioxido-1,3-dihydrobenzo[c]isothiazol-5-yl)amino)-1H-pyrazol-5-yl)cyclopentyl(3-methyltetrahydrofuran-3-yl)carbamate]: the IC50 against CDK1/Cyclin B1 was found to be 0.131 µM; at CDK2/Cyclin E1, 0.0018 µM.
As to `CN1c2ccc(Nc3cc([C@@H]4CC[C@H](OC(=O)NC5(C)CCOC5)C4)[nH]n3)c(F)c2CS1(=O)=O` (single isomer, unassigned) [Example 349b, cis-3-(3-((4-fluoro-1-methyl-2,2-dioxido-1,3-dihydrobenzo[c]isothiazol-5-yl)amino)-1H-pyrazol-5-yl)cyclopentyl(3-methyltetrahydrofuran-3-yl)carbamate], the IC50 on CDK1/Cyclin B1 is 0.088 µM; on CDK2/Cyclin E1, 0.0012 µM.
As to `CN1c2ccc(Nc3cc([C@@H]4CC[C@H](OC(=O)NC5(C)CCOC5)C4)[nH]n3)c(F)c2CS1(=O)=O` (single isomer, unassigned) [Example 349c, cis-3-(3-((4-fluoro-1-methyl-2,2-dioxido-1,3-dihydrobenzo[c]isothiazol-5-yl)amino)-1H-pyrazol-5-yl)cyclopentyl(3-methyltetrahydrofuran-3-yl)carbamate], the IC50 worked out at 0.078 µM against CDK1/Cyclin B1 and 0.0019 µM on CDK2/Cyclin E1.
The matching figures for `CN1c2ccc(Nc3cc([C@@H]4CC[C@H](OC(=O)NC5(C)CCOC5)C4)[nH]n3)c(F)c2CS1(=O)=O` (single isomer, unassigned) [Example 349d, cis-3-(3-((4-fluoro-1-methyl-2,2-dioxido-1,3-dihydrobenzo[c]isothiazol-5-yl)amino)-1H-pyrazol-5-yl)cyclopentyl(3-methyltetrahydrofuran-3-yl)carbamate]: 0.152 µM and 0.0014 µM.
As for `CN1Cc2c(ccc(Nc3cc([C@@H]4CC[C@H](OC(=O)NC5(C)COC5)C4)[nH]n3)c2F)S1(=O)=O` (single isomer, unassigned) [Example 352a, cis-3-(3-((4-fluoro-2-methyl-1,1-dioxido-2,3-dihydrobenzo[d]isothiazol-5-yl)amino)-1H-pyrazol-5-yl)cyclopentyl(3-methyloxetan-3-yl)carbamate], the IC50 turned out to be 0.365 µM against CDK1/Cyclin B1 and 0.014 µM on CDK2/Cyclin E1.
With `CN1Cc2c(ccc(Nc3cc([C@@H]4CC[C@H](OC(=O)NC5(C)COC5)C4)[nH]n3)c2F)S1(=O)=O` (single isomer, unassigned) [Example 352b, cis-3-(3-((4-fluoro-2-methyl-1,1-dioxido-2,3-dihydrobenzo[d]isothiazol-5-yl)amino)-1H-pyrazol-5-yl)cyclopentyl(3-methyloxetan-3-yl)carbamate], the figures for the IC50 on CDK1/Cyclin B1 and against CDK2/Cyclin E1 were 0.651 µM and 0.007 µM, respectively.
The matching figures for `O=C(NC1CCC1)O[C@H]1CC[C@@H](c2cc(Nc3ccc4c(c3)CS(=O)(=O)N4)n[nH]2)C1` (single isomer, unassigned) [Example 380a, cis-3-(3-((2,2-dioxido-1,3-dihydrobenzo[c]isothiazol-5-yl)amino)-1H-pyrazol-5-yl)cyclopentyl cyclobutylcarbamate]: 0.07 µM and 0.0016 µM.
The matching figures for `O=C(NC1CCC1)O[C@H]1CC[C@@H](c2cc(Nc3ccc4c(c3)CS(=O)(=O)N4)n[nH]2)C1` (single isomer, unassigned) [Example 380b, cis-3-(3-((2,2-dioxido-1,3-dihydrobenzo[c]isothiazol-5-yl)amino)-1H-pyrazol-5-yl)cyclopentyl cyclobutylcarbamate]: 0.023 µM and 0.0009 µM.
`O=C(NC1CCCC1)O[C@H]1CC[C@@H](c2cc(Nc3ccc4c(c3)CS(=O)(=O)N4)n[nH]2)C1` (single isomer, unassigned) [Example 381a, cis-3-(3-((2,2-dioxido-1,3-dihydrobenzo[c]isothiazol-5-yl)amino)-1H-pyrazol-5-yl)cyclopentyl cyclopentylcarbamate]: the IC50 on CDK1/Cyclin B1 was determined as 0.045 µM; at CDK2/Cyclin E1, 0.0012 µM.
On the same counts, the results for `O=C(NC1CCCC1)O[C@H]1CC[C@@H](c2cc(Nc3ccc4c(c3)CS(=O)(=O)N4)n[nH]2)C1` (single isomer, unassigned) [Example 381b, cis-3-(3-((2,2-dioxido-1,3-dihydrobenzo[c]isothiazol-5-yl)amino)-1H-pyrazol-5-yl)cyclopentyl cyclopentylcarbamate] are 0.019 µM and 0.0009 µM.
For `CC[C@H](C)NC(=O)O[C@@H]1CC[C@H](c2cc(Nc3ccc4c(c3F)CS(=O)(=O)N4)n[nH]2)C1` (single isomer, unassigned) [Example 383a], the IC50 came to 0.045 µM at CDK1/Cyclin B1 and 0.0017 µM against CDK2/Cyclin E1.
The matching figures for `CC[C@H](C)NC(=O)O[C@H]1CC[C@@H](c2cc(Nc3ccc4c(c3F)CS(=O)(=O)N4)n[nH]2)C1` (single isomer, unassigned) [Example 383b]: 0.015 µM and 0.0014 µM.
